Data on 20 compounds can be found in US20250332173A1, “COMPOUNDS AND METHODS FOR MODULATING NUCLEIC ACID SPLICING” (REMIX THERAPEUTICS INC., priority 2021, published 2025).

The structures appear in SMILES notation. Where two headings read alike, the source gives them in different places.

For assay [1], the system named is MYB mRNA. The experiment in a line: RT-qPCR splicing assay, MYB canonical junction (CJ) and alternative junction (AJ) mRNA. The assay is classed as cell-based, human. Particulars: Homo sapiens; for AC50: increase in MYB alternative junction (AJ) mRNA, read-out: MYB AJ AC50. The method in brief: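 24 h treatment, 37 °C/5% CO2; A673 or K562; 11-pt 3-fold series, top 10 uM final; DMSO ≤0.25%. Cell lysis with DNase I, then 1-step RT-qPCR. Housekeeping normalization: PPIA (A673), GAPDH or GUSB (K562).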
(In qPCR the cycle at which signal appears reflects the starting amount.)

The test system of assay [2] is Target C. Kind of assay: RT-qPCR splicing assay panel, Target C canonical junction (CJ) mRNA. The format is cell-based, human. Conditions: Homo sapiens; canonical junction qPCR panel, Table 5; read-out: Target C (decrease in CJ mRNA levels, IC50). The gist of the method:
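Canonical exon-exon junction transcript levels measured by one-step RT-qPCR of cell lysates, normalized to a housekeeping gene (GAPDH, GUSB or PPIA). Cells used were A673 or K562, exposed for 24 h to compound in 11-point, 3-fold series from 10 uM, with final DMSO at or below 0.25%.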

Setting [3] is: canonical junction qPCR panel, Table 5, read-out: MYB (decrease in CJ mRNA levels, IC50).
[4] abbreviates: decrease in MYB canonical junction (CJ) mRNA, RT-qPCR, read-out: MYB CJ IC50.

Broadly, the IC50 is the midpoint of a concentration-inhibition curve. For orientation: AC50 means the concentration giving half of the maximal activity seen. As for `Cc1c(O)c(-c2ncc3c(=O)n([C@H]4C[C@@H](N)C4)ccc3n2)cc2cn(C)nc12` [Compound 1431, 6-((1s,3s)-3-aminocyclobutyl)-2-(6-hydroxy-2,7-dimethyl-2H-indazol-5-yl)pyrido[4,3-d]pyrimidin-5(6H)-one], the IC50 in assay [1] (setting [3]), in assay [1] (setting [4]) and in assay [2] was 1 to 10 µM each time. In assay [1] (RT-qPCR), the half-maximal activity concentration (AC50) lay in the range of 1 to 10 µM.
Take `Cc1c(O)c(-c2ncc3c(=O)n([C@H]4C[C@H](N)C4)ccc3n2)cc2cn(C)nc12` [Compound 1432, 6-((1r,3r)-3-aminocyclobutyl)-2-(6-hydroxy-2,7-dimethyl-2H-indazol-5-yl)pyrido[4,3-d]pyrimidin-5(6H)-one]: the values for the concentration for half-maximal inhibition (IC50) in assay [1] (setting [3]), in assay [1] (setting [4]) and in assay [2] were 0.1 to 1 µM, 0.1 to 1 µM and 1 to 10 µM, respectively. In assay [1] (RT-qPCR), the AC50 fell in the range of 0.1 to 1 µM.
Turning to `Cc1c(O)c(-c2ncc3c(=O)n([C@@H]4CCN[C@H](C)C4)ccc3n2)cc2cn(C)nc12` [Compound 1434, 2-(6-hydroxy-2,7-dimethyl-indazol-5-yl)-6-(2-methyl-4-piperidyl)pyrido[4,3-d]pyrimidin-5-one], the concentration for half-maximal inhibition (IC50) is 0.1 to 1 µM in assay [1] (setting [3]), 0.1 to 1 µM in assay [1] (setting [4]) and 1 to 10 µM in assay [2]. The half-maximal activity concentration (AC50) in assay [1] (RT-qPCR) fell in the range of 0.1 to 1 µM.
For the compound `Cc1c(O)c(-c2ncc3c(=O)n([C@H]4CCNC(C)(C)C4)ccc3n2)cc2cn(C)nc12` [Compound 1436], the half-maximal inhibitory concentration (IC50) was less than 0.1 µM in assay [1] (setting [3]), less than 0.1 µM in assay [1] (setting [4]) and 1 to 10 µM in assay [2]. The concentration at half-maximal activity (AC50) in assay [1] (RT-qPCR) is less than 0.1 µM.
For the compound `Cc1cn2nc(-c3ccc4c(=O)n([C@H]5CCNC5)ccc4n3)cc(C)c2n1` [Compound 1437, 2-(2,8-dimethylimidazo[1,2-b]pyridazin-6-yl)-6-[(3S)-pyrrolidin-3-yl]-1,6-aphthyridin-5-one], the figures for the 50% inhibitory concentration (IC50) in assay [1] (setting [3]), in assay [1] (setting [4]) and in assay [2] were 0.1 to 1 µM, 0.1 to 1 µM and 1 to 10 µM, respectively. The half-maximal activity concentration (AC50) in assay [1] (RT-qPCR) is 0.1 to 1 µM.
Regarding `Cc1cn2nc(-c3ccc4c(=O)n([C@@H]5CCNC5)ccc4n3)cc(C)c2n1` [Compound 1438, 2-(2,8-dimethylimidazo[1,2-b]pyridazin-6-yl)-6-[(3R)-pyrrolidin-3-yl]-1,6-naphthyridin-5-one], the IC50 in assay [1] (setting [3]) lay within 0.1 to 1 µM; in assay [1] (setting [4]) it was 0.1 to 1 µM; in assay [2], 1 to 10 µM. The half-maximal activity concentration (AC50) in assay [1] (RT-qPCR) lay within 0.1 to 1 µM.
As for `Cc1c(O)c(-c2ncc3c(=O)n([C@H]4CCN[C@@H](C)C4)ccc3n2)cc2cn(C)nc12` [Compound 1441, 2-(6-hydroxy-2,7-dimethyl-indazol-5-yl)-6-(2-methyl-4-piperidyl)pyrido[4,3-d]pyrimidin-5-one], the values for the half-maximal inhibitory concentration (IC50) in assay [1] (setting [3]), in assay [1] (setting [4]) and in assay [2] were less than 0.1 µM, less than 0.1 µM and 0.1 to 1 µM, respectively. For the same compound, in assay [1] (RT-qPCR), the concentration at half-maximal activity (AC50) is less than 0.1 µM.
In the case of `Cc1c(O)c(-c2ncc3c(=O)n(C4CCNC(C)(C)C4)ccc3n2)cc2cn(C)nc12` (centres unmarked) [Compound 1442], the concentration for half-maximal inhibition (IC50) in assay [1] (setting [3]) is 0.1 to 1 µM; in assay [1] (setting [4]) it was less than 0.1 µM; in assay [2], 1 to 10 µM. For the same compound, the concentration at half-maximal activity (AC50) in assay [1] (RT-qPCR) is 0.1 to 1 µM.
As to `Cc1c(O)c(-c2ncc3c(=O)n([C@@H]4C[C@H]5C[C@@H]4CN5)ccc3n2)cc2cn(C)nc12` [Compound 1445, 6-[(1R,4R,5R)-2-azabicyclo[2.2.1]heptan-5-yl]-2(6-hydroxy-2,7-dimethyl-indazol-5-yl)pyrido[4,3-d]pyrimidin-5-one], the half-maximal inhibitory concentration (IC50) in assay [1] (setting [3]) was 1 to 10 µM; in assay [1] (setting [4]), more than 10 µM; in assay [2], more than 10 µM. For the same compound, the AC50 in assay [1] (RT-qPCR) fell in the range of 1 to 10 µM.
`Cc1c(O)c(-c2ccc3c(=O)n(C4CC(C)NC(C)C4)ccc3n2)cc2cn(C)nc12` (centres unmarked) [Compound 1447, 6-(2,6-dimethyl-4-piperidyl)-2-(6-hydroxy-2,7-dimethyl-indazol-5-yl)-1,6-naphthyridin-5-one]: the figures for the IC50 in assay [1] (setting [3]), in assay [1] (setting [4]) and in assay [2] were 0.1 to 1 µM, 0.1 to 1 µM and 1 to 10 µM, respectively. The half-maximal activity concentration (AC50) in assay [1] (RT-qPCR) lay within 0.1 to 1 µM.
Consider `Cc1cn2cc(-c3cc(O)c4c(=O)n(C5CCNCC5)ccc4n3)cc(F)c2n1` [Compound 1448], for which the results for the IC50 in assay [1] (setting [3]), in assay [1] (setting [4]) and in assay [2] were 0.1 to 1 µM, 0.1 to 1 µM and 1 to 10 µM, respectively. Besides, the half-maximal activity concentration (AC50) in assay [1] (RT-qPCR) is 0.1 to 1 µM.
`Cc1c(O)c(-c2ccc3c(=O)n([C@H]4CCNC4)ccc3n2)cc2cn(C)nc12` [Compound 1449, 2-(6-hydroxy-2,7-dimethyl-indazol-5-yl)-6-[(3S)-pyrrolidin-3-yl]-1,6-naphthyridin-5-one]: the 50% inhibitory concentration (IC50) is 0.1 to 1 µM in assay [1] (setting [3]), 0.1 to 1 µM in assay [1] (setting [4]) and more than 10 µM in assay [2]. Besides, in assay [1] (RT-qPCR), the AC50 was in the range of 0.1 to 1 µM.
Take `Cc1c(O)c(-c2ccc3c(=O)n([C@@H]4CCNC4)ccc3n2)cc2cn(C)nc12` [Compound 1450, 2-(6-hydroxy-2,7-dimethyl-indazol-5-yl)-6-[(3R)-pyrrolidin-3-yl]-1,6-naphthyridin-5-one]: the IC50 in assay [1] (setting [3]) was 0.1 to 1 µM; in assay [1] (setting [4]) it was 0.1 to 1 µM; in assay [2] it was more than 10 µM. The half-maximal activity concentration (AC50) in assay [1] (RT-qPCR) lay within 0.1 to 1 µM.
In the case of `Cn1cc2cc(-c3ccc4c(=O)n([C@H]5CCNC5)ccc4n3)c(O)c(F)c2n1` [Compound 1451, 2-(7-fluoro-6-hydroxy-2-methyl-indazol-5-yl)-6-[(3S)-pyrrolidin-3-yl]-1,6-naphthyridin-5-one], the IC50 is less than 0.1 µM in assay [1] (setting [3]), 0.1 to 1 µM in assay [1] (setting [4]) and 0.1 to 1 µM in assay [2]. In addition, the AC50 in assay [1] (RT-qPCR) is less than 0.1 µM.
Consider `Cn1cc2cc(-c3ccc4c(=O)n([C@@H]5CCNC5)ccc4n3)c(O)c(F)c2n1` [Compound 1452, 2-(7-fluoro-6-hydroxy-2-methyl-indazol-5-yl)-6-[(3R)-pyrrolidin-3-yl]-1,6-naphthyridin-5-one], for which the IC50 in assay [1] (setting [3]) is less than 0.1 µM; in assay [1] (setting [4]) it was 0.1 to 1 µM; in assay [2], 0.1 to 1 µM. For the same compound, the AC50 in assay [1] (RT-qPCR) was less than 0.1 µM.
As to `Cc1c(O)c(-c2ncc3c(=O)n([C@@H]4C[C@@H](C)N[C@@H](C)C4)ccc3n2)cc2cn(C)nc12` [Compound 1453, 6-[(2S,6R)-2,6-dimethyl-4-piperidyl]-2-(6-hydroxy-2,7-dimethyl-indazol-5-yl)pyrido[4,3-d]pyrimidin-5-one], the IC50 was 0.1 to 1 µM in assay [1] (setting [3]), 1 to 10 µM in assay [1] (setting [4]) and more than 10 µM in assay [2]. Also, the concentration at half-maximal activity (AC50) in assay [1] (RT-qPCR) is 0.1 to 1 µM.
For the compound `Cc1c(O)c(-c2ncc3c(=O)n(C4C[C@@H](C)N[C@H](C)C4)ccc3n2)cc2cn(C)nc12` (stereo partly drawn) [Compound 1454, 6-[(2R,6R)-2,6-dimethyl-4-piperidyl]-2-(6-hydroxy-2,7-dimethyl-indazol-5-yl)pyrido[4,3-d]pyrimidin-5-one], the IC50 was 0.1 to 1 µM in assay [1] (setting [3]), 0.1 to 1 µM in assay [1] (setting [4]) and 1 to 10 µM in assay [2]. Moreover, in assay [1] (RT-qPCR), the AC50 lay within 0.1 to 1 µM.
With `Cc1c(O)c(-c2ncc3c(=O)n(C4C[C@H](C)N[C@@H](C)C4)ccc3n2)cc2cn(C)nc12` (stereo partly drawn) [Compound 1455, 6-[(2S,6S)-2,6-dimethyl-4-piperidyl]-2-(6-hydroxy-2,7-dimethyl-indazol-5-yl)pyrido[4,3-d]pyrimidin-5-one], the IC50 in assay [1] (setting [3]) was less than 0.1 µM; in assay [1] (setting [4]) it was less than 0.1 µM; in assay [2], 1 to 10 µM. Besides, in assay [1] (RT-qPCR), the AC50 was less than 0.1 µM.
As for `Cc1cn2cc(-c3cc(F)c4c(=O)n([C@@H]5CNC[C@H]5F)ccc4c3)cc(F)c2n1` [Compound 1456], the IC50 was 0.1 to 1 µM in assay [1] (setting [3]), 0.1 to 1 µM in assay [1] (setting [4]) and more than 10 µM in assay [2]. Moreover, the half-maximal activity concentration (AC50) in assay [1] (RT-qPCR) was in the range of 0.1 to 1 µM.
For the compound `Cc1cn2cc(-c3ncc4c(=O)n([C@@H]5CCNC6(CC6)C5)ccc4n3)cc(F)c2n1` [Compound 1457, 6-[(7R)-4-azaspiro[2.5]octan-7-yl]-2-(8-fluoro-2-methyl-imidazo[1,2-a]pyridin-6-yl)pyrido[4,3-d]pyrimidin-5-one], the values for the IC50 in assay [1] (setting [3]), in assay [1] (setting [4]) and in assay [2] were 0.1 to 1 µM, 0.1 to 1 µM and 1 to 10 µM, respectively. For the same compound, in assay [1] (RT-qPCR), the AC50 is 0.1 to 1 µM.
